Results taken from patent US11649227B2, “Allosteric chromenone inhibitors of phosphoinositide 3-kinase (PI3K) for the treatment of disease” (Petra Pharma Corporation, priority 2020, dated 2023).
pIC50: −log10 of the molar value.

Tests used:
[1] = target: human full length PIK3CA H1047R mutant (p110α/p85α complex) (Homo sapiens (Human), UniProt P42336, H1047R); assay: PI3K-Alpha kinase (PIK3CA) activity, H1047R mutant, Transcreener ADP2 FI assay; conditions: PI3K-α (PIK3CA) H1047R mutant, biochemical
Method: (§1) PI3K-Alpha kinase (PIK3CA) activity, wild-type and H1047R mutant and determining IC50 values for inhibitors
(§2) Recombinant, catalytically active human full length PIK3KA Wild-type and H1047R mutant were purchased as 1:1 complex of N-terminal 6×his tagged p110<(catalytic) and untagged p85<(regulatory subunit) from EMD Millipore Sigma (cat. no. 14-602M and 14-792M, respectively). The enzyme stocks were diluted to 5× stocks in buffer (20 mM HEPES pH 7.4, 100 mM NaCl, 0.5 mM EGTA, 0.01% triton-x-100) just before use. PIP2diC8 (Avanti Polar Lipids Inc., cat. no. 850185) or phosphoinositol-4,5-bisphosphate with phosphoserine (PIP2:PS) membrane (Thermo Fisher Scientific, cat. no. PV5100) was used as lipid substrates. PIP2diC8 lyophilized powder and PIP2:PS (1:19) membrane stock (1 mM in PIP2) were separately dissolved in milliQ water to a concentration of 250 uM and stored in −20° C. 10 mM stocks of compounds were serially diluted (3×) in neat DMSO and stored in a dessicator at room temperature. 5× compound stocks in 25% DMSO were prepared fresh from neat DMSO stocks. Wild-type (WT) and H1047R mutant protein, along with buffer components (except ATP), were incubated with or without compound at 27° C. for 1h. After incubation, the reaction was initiated by the addition of 5 uL of 125 uM ATP. A typical assay mixture (25 uL) comprised 40 mM HEPES buffer, pH 7.4, 25 mM MgCl2, 0.01% v/v triton-X-100, 5% v/v DMSO, 20 mM NaCl, 1-5 nM wt or H1047R, 25 uM ATP, and 50 uM PTP2diC8 or PTP2 in membrane. The reaction was allowed to proceed until about […] (2.5 uM ADP) after which time, 10 uL of reaction mixture was quenched with 25 uL of transcreener reagent (Transcreener ADP2 FI assay kit, BellBrook labs, Cat. No. 3013). The contents were incubated at rt for 1h and fluorescence was measured using a plate reader (Paradigm, Molecular Devices). The same assay was also run at pH 6.0 or 6.4 using MOPS buffer (Fisher BioReagents, CAS 1132-61-2). A calibration curve was generated under identical buffer conditions with varying ADP amounts. Using that, the observed fluorescence was converted to uM ADP. A plot between [ADP] and log[I] yielded the dose-response curves that enabled the calculation of IC50s.

[2] = target: human full length PIK3CA Wild-type (p110α/p85α complex) (Homo sapiens (Human), UniProt P42336); assay: PI3K-Alpha kinase (PIK3CA) activity, wild-type, Transcreener ADP2 FI assay; conditions: PI3K-α (PIK3CA) wild-type, biochemical
Method: as §1, §2

Sequence of human full length PIK3CA H1047R mutant (p110α/p85α complex) (P42336 whole entry H1047R): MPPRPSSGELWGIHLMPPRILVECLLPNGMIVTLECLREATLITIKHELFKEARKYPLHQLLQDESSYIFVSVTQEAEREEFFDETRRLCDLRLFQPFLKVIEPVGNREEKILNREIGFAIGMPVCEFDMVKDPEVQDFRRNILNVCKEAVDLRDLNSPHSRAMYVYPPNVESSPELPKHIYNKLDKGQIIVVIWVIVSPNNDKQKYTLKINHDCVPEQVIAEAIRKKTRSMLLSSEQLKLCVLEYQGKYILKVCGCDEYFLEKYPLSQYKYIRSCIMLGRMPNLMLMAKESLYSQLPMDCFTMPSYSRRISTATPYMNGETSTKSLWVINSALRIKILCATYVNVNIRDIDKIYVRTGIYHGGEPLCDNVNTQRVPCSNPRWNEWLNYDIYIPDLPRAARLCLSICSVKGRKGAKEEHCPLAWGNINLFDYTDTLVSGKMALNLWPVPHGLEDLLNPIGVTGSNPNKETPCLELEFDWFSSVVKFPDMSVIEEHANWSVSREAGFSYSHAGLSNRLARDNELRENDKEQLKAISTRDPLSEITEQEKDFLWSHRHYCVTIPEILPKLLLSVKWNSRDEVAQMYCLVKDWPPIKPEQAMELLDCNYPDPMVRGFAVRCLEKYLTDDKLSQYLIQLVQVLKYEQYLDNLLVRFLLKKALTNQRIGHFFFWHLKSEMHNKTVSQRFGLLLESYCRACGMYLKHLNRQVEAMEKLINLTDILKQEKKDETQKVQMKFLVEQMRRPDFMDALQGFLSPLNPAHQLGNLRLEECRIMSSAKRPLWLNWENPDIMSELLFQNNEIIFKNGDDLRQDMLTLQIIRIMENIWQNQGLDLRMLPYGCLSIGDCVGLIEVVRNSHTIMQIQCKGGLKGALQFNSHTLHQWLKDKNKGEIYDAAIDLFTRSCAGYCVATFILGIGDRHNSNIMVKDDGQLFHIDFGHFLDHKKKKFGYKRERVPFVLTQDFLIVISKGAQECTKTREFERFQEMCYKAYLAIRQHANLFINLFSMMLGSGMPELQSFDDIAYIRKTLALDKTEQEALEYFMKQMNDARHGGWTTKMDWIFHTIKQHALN
Sequence of human full length PIK3CA H1047R mutant (p110α/p85α complex) (P27986 whole entry partner): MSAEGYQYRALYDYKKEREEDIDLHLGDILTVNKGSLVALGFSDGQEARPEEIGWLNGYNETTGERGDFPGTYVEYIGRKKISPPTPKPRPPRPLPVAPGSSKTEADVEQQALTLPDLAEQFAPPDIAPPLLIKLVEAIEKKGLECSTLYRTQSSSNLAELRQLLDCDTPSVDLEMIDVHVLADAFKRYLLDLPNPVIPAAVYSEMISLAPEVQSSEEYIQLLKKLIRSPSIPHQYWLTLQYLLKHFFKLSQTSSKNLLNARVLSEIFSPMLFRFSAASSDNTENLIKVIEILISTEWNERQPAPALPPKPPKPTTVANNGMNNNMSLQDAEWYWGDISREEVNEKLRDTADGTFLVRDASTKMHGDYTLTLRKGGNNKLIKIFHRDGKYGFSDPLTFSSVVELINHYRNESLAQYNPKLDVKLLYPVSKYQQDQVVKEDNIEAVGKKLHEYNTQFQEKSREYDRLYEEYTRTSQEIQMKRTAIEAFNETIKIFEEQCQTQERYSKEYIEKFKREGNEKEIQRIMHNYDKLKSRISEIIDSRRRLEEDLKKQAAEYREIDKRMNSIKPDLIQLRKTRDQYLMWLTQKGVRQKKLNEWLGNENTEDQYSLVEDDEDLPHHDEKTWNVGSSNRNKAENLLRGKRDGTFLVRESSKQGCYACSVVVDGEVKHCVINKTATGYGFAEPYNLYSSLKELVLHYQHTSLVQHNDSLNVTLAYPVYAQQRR
Sequence of human full length PIK3CA Wild-type (p110α/p85α complex) (P42336 whole entry): as the sequence (P42336 whole entry H1047R) above, with R1047H counted along it
Sequence of human full length PIK3CA Wild-type (p110α/p85α complex) (P27986 whole entry partner): as the sequence (P27986 whole entry partner) above

Row | pIC50 [1] | pIC50 [2] | Structure (SMILES)
1 | < 5.00 | < 5.00 | Cc1cc(C(C)Nc2ccccc2C(=O)O)c2oc(N3CCC(C)(C)CC3)c(-c3cnoc3)c(=O)c2c1 (single isomer, unassigned) [Example 54, 2-[1-[2-(4,4-Dimethyl-1-piperidyl)-3-isoxazol-4-yl-6-methyl-4-oxo-chromen-8-yl]ethylamino]benzoic acid]
2 | 6.00 to 6.30 | < 5.00 | Cc1cc(C(C)Nc2ccccc2C(=O)O)c2oc(N3CCC(c4ccncc4)C3)cc(=O)c2c1 (single isomer, unassigned) [Example 194, 2-[1-[6-Methyl-4-oxo-2-[3-(4-pyridyl)pyrrolidin-1-yl]chromen-8-yl]ethylamino]benzoic acid 2,2,2-trifluoroacetic acid]
3 | 6.00 to 6.30 | 6.00 to 6.30 | Cc1cc(C(C)Nc2ccccc2C(=O)O)c2oc(N3CCC(C)(C)CC3)c(C#N)c(=O)c2c1 (stereo not drawn) [Example 392, 2-[1-[3-Cyano-2-(4,4-dimethyl-1-piperidyl)-6-methyl-4-oxo-chromen-8-yl]ethylamino]benzoic acid 2,2,2-trifluoroacetic acid]
4 | > 6.30 | > 6.30 | Cc1c(N2CCC3(CC2)CC3)oc2c(C(C)Nc3ccccc3C(=O)O)cc(F)cc2c1=O (single isomer, unassigned) [Example 328, 2-[1-[2-(6-Azaspiro[2.5]octan-6-yl)-6-fluoro-3-methyl-4-oxo-chromen-8-yl]ethylamino]benzoic acid]
5 | 5.00 to 5.30 | < 5.00 | Cc1cc(C(C)Nc2ccccc2C(=O)O)c2oc(N3Cc4ccc(F)cc4C3)cc(=O)c2c1 (single isomer, unassigned) [Example 124, 2-[1-[2-(5-Fluoroisoindolin-2-yl)-6-methyl-4-oxo-chromen-8-yl]ethylamino]benzoic acid]
6 | > 6.30 | > 6.30 | Cc1c(N2CCC(F)(F)CC2)oc2c(C(C)Nc3ccccc3C(=O)O)cc(F)cc2c1=O (single isomer, unassigned) [Example 326, 2-[1-[2-(4,4-Difluoro-1-piperidyl)-6-fluoro-3-methyl-4-oxo-chromen-8-yl]ethylamino]benzoic acid]
7 | > 6.30 | 6.00 to 6.30 | Cc1cc(C(C)Nc2ccccc2C(=O)O)c2oc(N3Cc4ccc(F)cc4C3)cc(=O)c2c1 (single isomer, unassigned) [Example 123, 2-[1-[2-(5-Fluoroisoindolin-2-yl)-6-methyl-4-oxo-chromen-8-yl]ethylamino]benzoic acid]
8 | > 6.30 | 6.00 to 6.30 | Cc1c(N2Cc3ccc(F)cc3C2)oc2c(C(C)Nc3ccccc3C(=O)O)cc(C(F)(F)F)cc2c1=O (single isomer, unassigned) [Example 343, 2-[1-[2-(5-Fluoroisoindolin-2-yl)-3-methyl-4-oxo-6-(trifluoromethyl)chromen-8-yl]ethylamino]benzoic acid]
9 | 6.00 to 6.30 | 5.30 to 6.00 | CC(Nc1ccccc1C(=O)O)c1cc(C(F)(F)F)cc2c(=O)cc(N3CCC(C)(C)CC3)oc12 (stereo not drawn) [Example 57, 2-[1-[2-(4,4-dimethyl-1-piperidyl)-4-oxo-6-(trifluoromethyl)chromen-8-yl]ethylamino]benzoic acid]
10 | > 6.30 | 6.00 to 6.30 | Cc1cc(C(C)Nc2ccccc2C(=O)O)c2oc(N3Cc4ccc(F)cc4C3)c(C)c(=O)c2c1 (single isomer, unassigned) [Example 272, 2-[1-[2-(5-Fluoroisoindolin-2-yl)-3,6-dimethyl-4-oxo-chromen-8-yl]ethylamino]benzoic acid]
11 | 5.30 to 6.00 | 5.30 to 6.00 | Cc1cc(C(C)Nc2cccc3c2C(=O)NC3)c2oc(N3CCC(C)(C)CC3)cc(=O)c2c1 (stereo not drawn) [Example 29, 7-[1-[2-(4,4-Dimethyl-1-piperidyl)-6-methyl-4-oxo-chromen-8-yl]ethylamino]isoindolin-1-one]
12 | 6.00 to 6.30 | 5.00 to 5.30 | Cc1cc(C(C)Nc2ccccc2C(=O)O)c2oc(N3CCCC4(CCOCC4)C3)cc(=O)c2c1 (stereo not drawn) [Example 76, 2-[1-[6-Methyl-2-(9-oxa-2-azaspiro[5.5]undecan-2-yl)-4-oxo-chromen-8-yl]ethylamino]benzoic acid]
